This test concerns Candida albicans. In words: Concentration required to reduce the growth of Candida albicans to 50% of that in the control. Format: functional, organism-based.

As to `COc1cc(C(F)(F)F)ccc1C(O)(Cn1cncn1)Cn1cncn1`, the IC50 (commonly the concentration needed to halve the response being measured) came out at 28.5 µM.
Compound `OC(Cn1cncn1)(Cn1cncn1)c1ccccc1C(F)(F)F` showed an IC50 of 103 µM.
For `OC(Cn1cncn1)(Cn1cncn1)c1ccc(-c2ccc(Cl)cc2)cc1` the value was 7.19 µM; for `OC(Cn1cncn1)(Cn1cncn1)c1ccc(C(F)(F)F)cc1`, 3.25 µM.
For `Cc1cc(F)ccc1C(O)(Cn1cncn1)Cn1cncn1` the value was 101 µM; for `OC(Cn1cncn1)(Cn1cncn1)c1ccc(Oc2ccc(Cl)cc2)cc1`, 6.94 µM; for `OC(Cn1cncn1)(Cn1cncn1)c1ccc(F)cc1F` [FLUCONAZOLE], 1.97 µM.

Source of the values: ChEMBL document CHEMBL1133695, “A three-dimensional model of lanosterol 14alpha-demethylase of Candida albicans and its interaction with azole antifungals” (J Med Chem, 2000).
